# Results from the supplement of paper PMC10477900.
# Counter-ions that a name gives are not always drawn.
# Tests used:
# HCT116 [1] = settings: 72 h
# Protocol: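 HCT116 control and MTA1-KO (CRISPR) HCT116 cells were seeded in 384-well plates (800 cells/well), treated 16 h later with 237 metabolism-related anticancer drugs at five doses (10 uM, 2 uM, 400 nM, 80 nM, 16 nM) for 72 h, two replicates; viability by CCK8. Values are % inhibition of viability relative to untreated cells, plus fitted IC50.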
# HCT116 [2] = experiment: viability inhibition vs untreated; higher = more cytotoxic; settings: 72 h
Compound,IC50 (HCT116 [1]; genotype: MTA1-KO) [µM],IC50 (HCT116 [1]; genotype: control) [µM],"viability inhibition (HCT116 [2]; genotype: MTA1-KO, 16 nM) [%]","viability inhibition (HCT116 [2]; genotype: MTA1-KO, 80 nM) [%]","viability inhibition (HCT116 [2]; genotype: MTA1-KO, 400 nM) [%]","viability inhibition (HCT116 [2]; genotype: MTA1-KO, 2000 nM) [%]","viability inhibition (HCT116 [2]; genotype: MTA1-KO, 10000 nM) [%]","viability inhibition (HCT116 [2]; genotype: control, 16 nM) [%]","viability inhibition (HCT116 [2]; genotype: control, 80 nM) [%]","viability inhibition (HCT116 [2]; genotype: control, 400 nM) [%]","viability inhibition (HCT116 [2]; genotype: control, 2000 nM) [%]","viability inhibition (HCT116 [2]; genotype: control, 10000 nM) [%]"
O=c1c2cc(O)c(O)cc2oc2cc(O)c([C@@H]3O[C@H](CO)[C@@H](O)[C@H](O)[C@H]3O)c(O)c12 [Mangiferin],> 10,> 10,-12.5,-17.6,-11.2,-10.4,-14.8,-7.62,8.64,4.62,6.09,1.62
COc1ccc2[nH]cc(CCNC(C)=O)c2c1 [Melatonine],> 10,> 10,11.6,12.1,6.76,7.43,8.55,10.2,9.39,9.78,24.1,14.5
S=c1nc[nH]c2nc[nH]c12 [Mercaptopurine],6.61,2.74,-23.8,-26.8,-16.8,-13.3,63,-20.2,-15.2,-11.9,24.6,90.5
CN(C)C(=N)N=C(N)N [Metformin hydrochloride],> 10,> 10,-20.9,-15.7,-16.8,-16.1,-14.1,-3.73,-8.51,4.88,7.24,3.98
CC(=O)N=c1sc(S(N)(=O)=O)nn1C [Methazolamide],> 10,> 10,-8.89,-28.2,-14.6,-23.2,-21.9,6.26,-6.63,-3.65,-3.04,-0.243
COc1ccccc1OCC(O)COC(N)=O (stereo not given) [Methocarbamol],> 10,> 10,-9.86,-16.2,-9.99,-8.84,-12,-5.51,-3.73,-0.351,5.2,11
CN(Cc1cnc2nc(N)nc(N)c2n1)c1ccc(C(=O)N[C@@H](CCC(=O)O)C(=O)O)cc1 [Methotrexate],> 10,8.92,7.18,-2.93,-6.45,-1.18,33,17.9,13.5,16.6,6.71,63.6
CC[C@H](C)C(=O)O[C@H]1CCC=C2C=C[C@H](C)[C@H](CC[C@@H]3C[C@@H](O)CC(=O)O3)[C@H]21 [Mevastatin],> 10,> 10,-20.4,-7.46,-17.3,-17.5,-22.4,-7.08,9.09,5.14,1.68,23.8
O=C(c1ccc(NS(=O)(=O)c2cccc3cccnc23)cc1)N1CCN(CC2CC2)CC1 [Mitapivat],> 10,> 10,1.32,0.728,-12.6,-14.4,-2.88,-8.53,-14.2,-22.8,-10.3,-12.3
O=C(O)c1cccnc1Nc1cccc(C(F)(F)F)c1 [Niflumic acid],> 10,> 10,-15.2,-17.4,-11.9,-15.8,-9.84,3.66,11.1,-0.91,-2.33,0.571
Cc1ccc2nc(N)[nH]c(=O)c2c1Sc1ccncc1 [Nolatrexed],9.66,> 10,8.71,2.94,-1.21,1.75,76,-21.6,-20.5,4.76,-22.2,-11.3
COc1cccc2cc(-c3nc(C4CCC(C(=O)O)CC4)n4ncnc(N)c34)[nH]c12 (stereo not given) [OSI027],> 10,> 10,12.5,9.23,10.1,-2.44,2.62,-12.5,-20.5,-21.1,13.8,42.3
Cc1c(-c2cnccn2)ssc1=S [Oltipraz],> 10,> 10,-30.8,-24.9,-26.7,-26.6,-33.9,-15.3,-6.71,-20.1,-19.1,-6.16
COC(=O)N1CCN(Cc2cccc(NC(=O)Nc3ccc(C)nc3)c2F)CC1 [Omecamtiv mecarbil],> 10,> 10,-10,-12.1,-17.5,-17.9,8.94,8.94,4.13,-7.43,1.24,5.67
CCCCCCCCCCC[C@@H](C[C@@H]1OC(=O)[C@H]1CCCCCC)OC(=O)[C@H](CC(C)C)NC=O [Orlistat],> 10,> 10,-6.57,-2.27,-2.16,-13.4,15.7,4.58,-13.3,-7.69,-2.81,37
O=C(Nc1ccc(O)cc1)c1ccccc1O [Osalmid],> 10,> 10,-19.6,-14.3,-16,-6.29,-7.75,-15.5,-18.3,-10.9,-10.7,5
OC(CNc1ccccc1)Cn1c2ccc(Br)cc2c2cc(Br)ccc21 (stereo not given) [P7C3],> 10,> 10,-3.09,-13,-15.4,-15.3,6.71,10.1,-2.92,4.14,-4.2,7.54
O=C(/C=C/c1ccc2ccccc2n1)c1ccncc1 [PFK015],2.71,2.17,-28,-23.8,-16.3,-14,124,-7.66,-7.18,-5.47,34,124
O=C(/C=C/c1ccc2ccc(C(F)(F)F)cc2n1)c1ccncc1 [PFK158],3.1,3.89,-5.2,-29.6,-31.5,-28.1,121,8.64,-5.17,1.7,-5.11,96.2
CCCCCCCCCCCCc1ccc(S(=O)(=O)Nc2nncs2)cc1 [PHT427],> 10,> 10,-19.3,-22.1,-13,-17.1,-3.56,20.4,-3.89,-1.76,-0.669,9.06
Nc1cc(C(F)(F)F)c(-c2nc(N3CCOCC3)nc(N3CCOCC3)n2)cn1 [PI3K-IN-2],0.468,0.7,23.9,23,49.3,88.7,90.2,-12.8,0.462,27.1,73.3,83.3
Oc1cccc(-c2nc(N3CCOCC3)c3oc4ncccc4c3n2)c1 [PI103],1.82,5.97,7.63,-22.6,-6.55,42.3,80.5,-15.1,-2.17,-8.02,-2.63,80.1
CC1=C(CSC(=S)N2CCCCC2)C(=O)c2ccccc2C1=O [PKM2 inhibitor],0.861,> 10,-2.72,-15.5,-11,79.7,65.9,-0.424,-10.4,-5.1,5.17,33.3
Nc1ncnc2c1c(-c1cnc3[nH]ccc3c1)nn2C1CCCC1 [PP121],0.675,0.874,14.3,12.8,43.5,90.3,111,10.8,16.8,25.2,86.4,104
COCC1(CO)C(=O)C2CCN1CC2 (stereo not given) [PRIMA-1Met],> 10,> 10,7.04,1.21,20.1,-5.66,5.13,13.6,13,5.28,1.17,30.6
COc1ccc(COc2cc3oc(=O)c4cc(C(C)O)ccc4c3cc2OC)cc1 (stereo not given) [Palomid 529],0.283,1.11,-7.41,23.6,37.3,64.4,90.1,7.44,22.7,38.9,54.6,86.9
C=C1C(=O)O[C@H]2[C@H]1CC/C(C)=C/CC[C@@]1(C)O[C@@H]21 [Parthenolide],2.9,6.58,13.7,23.4,17.3,27.8,114,-4.45,2.37,-14.2,-17.8,100
Nc1nc2[nH]cc(CCc3ccc(C(=O)N[C@@H](CCC(=O)O)C(=O)O)cc3)c2c(=O)[nH]1 [Pemetrexed Disodium Hydrate],1.71,> 10,-0.998,0.351,-2.35,34.3,60.9,-14.7,-8.65,-11.7,-6.77,5.15
Nc1nc2[nH]cc(CCc3ccc(C(=O)N[C@@H](CCC(=O)O)C(=O)O)cc3)c2c(=O)[nH]1 [Pemetrexed disodium],> 10,1.18,-3.16,1.56,17.8,28.6,32.9,21.1,13.2,10.5,70.6,69.4
NC(N)=NC(N)=NCCc1ccccc1 [Phenformin hydrochloride],> 10,> 10,-11.4,-9.26,-10.6,-4.27,20.1,12.5,18.4,9.46,8.84,42.4
